Measurements as given in patent publication US20050070554A1, “Substituted heterocyclic compounds and methods of use” (Amgen Inc., priority 2003, published 2005).
Read-outs that look alike come from different tables or passages of the source.

Biological target: T1, LCK (Homo sapiens, UniProt P06239)
T1 construct: LCK KD GST (225-509); GST
Assay: LCK-Homogeneous Time Resolved Fluorescent (HTRF) Kinase Assay
Format: biochemical
Experimental: LCK-Homogeneous Time Resolved Fluorescent (HTRF) Kinase Assay:
The LCK HTRF assay begins with LCK in the presence of ATP phosphorylating the biotinylated peptide Gastrin. The reaction incubates for 90 min. To quench the assay detection reagents are added which both stop the reaction by diluting out the enzyme and chelating the metals due to the presence of EDTA. Once the detection reagents are added the assay incubates for 30 min to allow for equilibration of the detection reagents.
Buffer conditions are as follows: 50 mM HEPES pH 7.5, 50 mM NaCl, 20 mM MgCl, 5 mM MnCl, 2 mM DTT, 0.05% BSA.
The assay is quenched and stopped with 160 μL of detection reagent. Detection reagents are as follows: Buffer made of 50 mM Tris, pH 7.5, 100 mM NaCl, 3 mM EDTA, 0.05% BSA, 0.1% Tween20.
The assay plate is read in either a Discovery or a RubyStar.

[1] = read-out: activity in the LCK-HTRF Kinase Assay

T1 sequence (P06239 225-509): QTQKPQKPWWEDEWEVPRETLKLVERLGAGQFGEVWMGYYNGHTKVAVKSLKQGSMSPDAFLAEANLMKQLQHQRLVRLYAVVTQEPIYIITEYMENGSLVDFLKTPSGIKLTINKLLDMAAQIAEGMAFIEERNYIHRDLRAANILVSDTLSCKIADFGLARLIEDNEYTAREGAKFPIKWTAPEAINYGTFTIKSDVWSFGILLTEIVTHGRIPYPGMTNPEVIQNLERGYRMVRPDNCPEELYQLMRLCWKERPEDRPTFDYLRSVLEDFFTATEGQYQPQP

| IC50 [1] [nM] | IC50 [nM] | SMILES |
| --- | --- | --- |
|  | < 1000 | CN1CCN(c2ccc(Nc3ncc4c(=O)n(-c5c(Cl)cccc5Cl)c5nc6ccccc6n5c4n3)cc2)CC1 [No. 67, 6-(2,6-dichlorophenyl)-2-((4-(4-methyl-1-piperazinyl)phenyl)amino)pyrimido[5′,4′:5,6]-pyrimido[1,2-a]benzimidazol-5(6H)-one] |
| < 1000 |  | Cc1cccc(C)c1-n1c(=O)c2cnc(Nc3ccc(OCCCN4CCN(C)CC4)c(Cl)c3)nc2n2c3ccccc3nc12 [No. 73, 2-((3-chloro-4-((3-(4-methyl-1-piperazinyl)propyl)-oxy)phenyl)amino)-6-(2,6-dimethylphenyl)-pyrimido[5′,4′:5,6]pyrimido[1,2-a]benzimidazol-5(6H)-one] |
| < 1000 |  | Cc1cccc(C)c1-n1c(=O)c2cnc(Nc3ccc(N4CCN(CCO)CC4)cc3)nc2n2c3ccccc3nc12 [No. 69, 6-(2,6-dimethylphenyl)-2-((4-(4-(2-hydroxyethyl)-1-piperazinyl)phenyl)amino)pyrimido[5′,4′:5,6]-pyrimido[1,2-a]benzimidazol-5(6H)-one] |
| < 1000 |  | CN1CCN(c2ccc(Nc3ncc4c(=O)n(-c5c(F)c(F)c(F)c(F)c5F)c5nc6ccccc6n5c4n3)cc2)CC1 [No. 89, 2-((4-(4-methyl-1-piperazinyl)phenyl)amino)-6-(pentafluorophenyl)pyrimido[5′,4′:5,6]pyrimido[1,2-a]benzimidazol-5(6H)-one] |
| < 1000 |  | COc1cc(Nc2ncc3c(=O)n(-c4c(C)cccc4C)c4nc5ccccc5n4c3n2)ccc1OC[C@H]1CCCN1 [No. 55, 6-(2,6-dimethylphenyl)-2-((3-(methyloxy)4-(((2R)-2-pyrrolidinylmethyl)oxy)phenyl)amino)-pyrimido[5′,4′:5,6]pyrimido[1,2-a]benzimidazol-5(6H)-one] |
| < 1000 |  | Cc1cccc(C)c1-n1c(=O)c2cnc(Nc3ccc(N4CCCNCC4)cc3)nc2n2c3ccccc3nc12 [No. 75, 2-((4-(1,4-diazepan-1-yl)phenyl)amino)-6-(2,6-dimethylphenyl)pyrimido[5′,4′:5,6]pyrimido[1,2-a]-benzimidazol-5(6H)-one] |
| < 1000 |  | CN1CCN(c2ccc(Nc3ncc4c(=O)n(-c5ccc(F)cc5)c5nc6ccccc6n5c4n3)cc2)CC1 [No. 84, 6-(4-fluorophenyl)-2-((4-(4-methyl-1-piperazinyl)-phenyl)amino)pyrimido[5′,4′:5,6]pyrimido[1,2-a]-benzimidazol-5(6H)-one] |
|  | < 1000 | COc1ccc(Cl)cc1-n1c(=O)c2cnc(Nc3ccc(N4CCN(C)CC4)cc3)nc2n2c3ccccc3nc12 [No. 76, 6-(5-chloro-2-(methyloxy)phenyl)-2-((4-(4-methyl-1-piperazinyl)phenyl)amino)pyrimido[5′,4′:5,6]-pyrimido[1,2-a]benzimidazol-5(6H)-one] |
|  | < 1000 | Cc1ccc(-n2c(=O)c3cnc(Nc4ccc(N5CCN(C)CC5)cc4)nc3n3c4ccccc4nc23)cc1 [No. 78, 6-(4-methylphenyl)-2-((4-(4-methyl-1-piperazinyl)-phenyl)amino)pyrimido[5′,4′:5,6]pyrimido[1,2-a]-benzimidazol-5(6H)-one] |

More lines, now with the values behind:

| SMILES | IC50 [1] [nM] | IC50 [nM] |
| --- | --- | --- |
| Cc1cccc(C)c1-n1c(=O)c2cnc(Nc3ccc(OCCN4CCCCC4)c(F)c3)nc2n2c3ccccc3nc12 [No. 35, 6-(2,6-dimethylphenyl)-2-((3-fluoro-4-((2-(1-piperidinyl)ethyl)oxy)phenyl)amino)-pyrimido[5′,4′:5,6]pyrimido[1,2-a]benzimidazol-5(6H)-one] | < 1000 |  |
| Cc1cccc(C)c1-n1c(=O)c2cnc(Nc3cccc(OCCCN4CCN(C)CC4)c3)nc2n2c3ccccc3nc12 [No. 39, 6-(2,6-dimethylphenyl)-2-((3-((3-(4-methyl-1-piperazinyl)propyl)oxy)phenyl)amino)-pyrimido[5′,4′:5,6]pyrimido[1,2-a]benzimidazol-5(6H)-one] | < 1000 |  |
| Cc1cccc(C)c1-n1c(=O)c2cnc(Nc3ccc(N4CCN(C(C)C)CC4)c(Cl)c3)nc2n2c3ccccc3nc12 [No. 41, 2-((3-chloro-4-(4-(1-methylethyl)-1-piperazinyl)-phenyl)amino)-6-(2,6-dimethylphenyl)-pyrimido[5′,4′:5,6]pyrimido[1,2-a]benzimidazol-5(6H)-one] | < 1000 |  |
| COc1cc(Nc2ncc3c(=O)n(-c4c(C)cccc4C)c4nc5ccccc5n4c3n2)ccc1OCCC1CCN(C)CC1 [No. 4, 6-(2,6-dimethylphenyl)-2-((3-(methyloxy)-4-((2-(1-methyl-4-piperidinyl)ethyl)oxy)phenyl)amino)-pyrimido[5′,4′:5,6]pyrimido[1,2-a]benzimidazol-5(6H)-one] | < 1000 |  |
| Cc1cccc(C)c1-n1c(=O)c2cnc(Nc3ccc(OCCCN4CCN(C)CC4)c(F)c3)nc2n2c3ccccc3nc12 [No. 7, 6-(2,6-dimethylphenyl)-2-((3-fluoro-4-((3-(4-methyl-1-piperazinyl)propyl)oxy)phenyl)amino)-pyrimido[5′,4′:5,6]pyrimido[1,2-a]benzimidazol-5(6H)-one] | < 1000 |  |
| Cc1cccc(C)c1-n1c(=O)c2cnc(Nc3ccc(N4CCN(C(C)C)CC4)c(F)c3)nc2n2c3ccccc3nc12 [No. 44, 6-(2,6-dimethylphenyl)-2-((3-fluoro-4-(4-(1-methylethyl)-1-piperazinyl)phenyl)amino)-pyrimido[5′,4′:5,6]pyrimido[1,2-a]benzimidazol-5(6H)-one] | < 1000 |  |
| Cc1cccc(C)c1-n1c(=O)c2cnc(Nc3ccc(OCCN4CCOCC4)cc3)nc2n2c3ccccc3nc12 [No. 29, 6-(2,6-dimethylphenyl)-2-((4-((2-(4-morpholinyl)-ethyl)oxy)phenyl)amino)pyrimido[5′,4′:5,6]-pyrimido[1,2-a]benzimidazol-5(6H)-one] | < 1000 |  |
| Cc1cccc(C)c1-n1c(=O)c2cnc(Nc3ccc(OCCCN4CCCCC4)c(F)c3)nc2n2c3ccccc3nc12 [No. 5, 6-(2,6-dimethylphenyl)-2-((3-fluoro-4-((3-(1-piperidinyl)propyl)oxy)phenyl)amino)-pyrimido[5′,4′:5,6]pyrimido[1,2-a]benzimidazol-5(6H)-one] | < 1000 |  |
| Cc1cccc(C)c1-n1c(=O)c2cnc(Nc3ccc(N4CCN(C)CC4)c(Cl)c3)nc2n2c3ccccc3nc12 [No. 40, 2-((3-chloro-4-(4-methyl-1-piperazinyl)phenyl)-amino)-6-(2,6-dimethylphenyl)pyrimido[5′,4′:5,6]-pyrimido[1,2-a]benzimidazol-5(6H)-one] | < 1000 |  |
| COc1cc(Nc2ncc3c(=O)n(-c4c(C)cccc4C)c4nc5ccccc5n4c3n2)ccc1OCCCN1CCN(C)CC1 [No. 20, 6-(2,6-dimethylphenyl)-2-((3-(methyloxy)-4-((3-(4-methyl-1-piperazinyl)propyl)oxy)phenyl)amino)-pyrimido[5′,4′:5,6]pyrimido[1,2-a]benzimidazol-5(6H)-one] |  | < 1000 |
| COc1cc(Nc2ncc3c(=O)n(-c4c(C)cccc4C)c4nc5ccccc5n4c3n2)ccc1OCCN1CCN(C)CC1 [No. 10, 6-(2,6-dimethylphenyl)-2-((3-(methyloxy)-4-((2-(4-methyl-1-piperazinyl)ethyl)oxy)phenyl)amino)-pyrimido[5′,4′:5,6]pyrimido[1,2-a]benzimidazol-5(6H)-one] |  | < 1000 |
| Cc1cccc(C)c1-n1c(=O)c2cnc(Nc3cccc(N4CCN(C)CC4)c3)nc2n2c3ccccc3nc12 [No. 48, 6-(2,6-dimethylphenyl)-2-((3-(4-methyl-1-piperazinyl)phenyl)amino)pyrimido[5′,4′:5,6]-pyrimido[1,2-a]benzimidazol-5(6H)-one] | < 1000 |  |
| COc1cc(Nc2ncc3c(=O)n(-c4c(C)cccc4C)c4nc5ccccc5n4c3n2)cc(OC)c1OCCN1CCN(C)CC1 [No. 22, 2-((3,5-bis(methyloxy)-4-((2-(4-methyl-1-piperazinyl)ethyl)oxy)phenyl)amino)-6-(2,6-dimethylphenyl)pyrimido[5′,4′:5,6]pyrimido[1,2-a]-benzimidazol-5(6H)-one] | < 1000 |  |
| Cc1cccc(C)c1-n1c(=O)c2cnc(Nc3ccc(N4CCN(C(C)C)CC4)cc3)nc2n2c3ccccc3nc12 [No. 31, 6-(2,6-dimethylphenyl)-2-((4-(4-(1-methylethyl)-1-piperazinyl)phenyl)amino)pyrimido[5′,4′:5,6]-pyrimido[1,2-a]benzimidazol-5(6H)-one] | < 1000 |  |
| COc1cc(Nc2ncc3c(=O)n(-c4c(C)cccc4C)c4nc5ccccc5n4c3n2)ccc1N1CCN(C(C)C)CC1 [No. 46, 6-(2,6-dimethylphenyl)-2-((4-(4-(1-methylethyl)-1-piperazinyl)-3-(methyloxy)phenyl)amino)-pyrimido[5′,4′:5,6]pyrimido[1,2-a]benzimidazol-5(6H)-one] | < 1000 |  |
| CNCCOc1ccc(Nc2ncc3c(=O)n(-c4c(C)cccc4C)c4nc5ccccc5n4c3n2)cc1 [No. 33, 6-(2,6-dimethylphenyl)-2-((4-((2-(methylamino)-ethyl)oxy)phenyl)amino)pyrimido[5′,4′:5,6]-pyrimido[1,2-a]benzimidazol-5(6H)-one] | < 1000 |  |
| Cc1cccc(C)c1-n1c(=O)c2cnc(Nc3ccc(OCCNC(C)C)c(Cl)c3)nc2n2c3ccccc3nc12 [No. 47, 2-((3-chloro-4-((2-((1-methylethyl)amino)ethyl)oxy)-phenyl)amino)-6-(2,6-dimethylphenyl)-pyrimido[5′,4′:5,6]pyrimido[1,2-a]benzimidazol-5(6H)-one] | < 1000 |  |
| COc1cc(Nc2ncc3c(=O)n(-c4c(C)cccc4C)c4nc5ccccc5n4c3n2)cc(OC)c1OCCN1CCOCC1 [No. 30, 2-((3,5-bis(methyloxy)-4-((2-(4-morpholinyl)ethyl)-oxy)phenyl)amino)-6-(2,6-dimethylphenyl)-pyrimido[5′,4′:5,6]pyrimido[1,2-a]benzimidazol-5(6H)-one] | < 1000 |  |
